Consider three compounds from patent US5814488A (priority 1993, dated 1998).

In one data set the test system is Escherichia coli. The data set is described as follows: Comparison of MIC and MBC (Tables 5 and 6). Type of data set: cell-based. The source says: (§1) […]. […] […]
For the next data set, the system named is Klebsiella pneumoniae. The data set is described as follows: Comparison of MIC and MBC (Tables 5 and 6). Type of data set: cell-based.
Description: as §1

In a further data set the test system is Pseudomonas sp. Put plainly: Comparison of MIC and MBC (Tables 5 and 6). It is filed as cell-based. The note with it: Table 6, Pseudomonas sp., 20 strains.
Description: as §1

The test system of the next data set is S. aureus. Put plainly: Comparison of MIC and MBC (Tables 5 and 6). It is filed as cell-based. The note with it: for MBC: Staphylococcus aureus, read-out: MBC90; for MBC range: in µg/mL (unit assumed).
Description: as §1

The next data set relates to Shigella. Put plainly: Comparison of MIC and MBC (Tables 5 and 6). Type of data set: cell-based. The note with it: Table 6, 10 strains.
Description: as §1

For data set [1] the following is noted: comparison value for MCR, source not stated in block, cited from earlier work.
The conditions of data set [2]: guinea pig, in vivo.
Data set [3] in a line: Nephrotoxicity to rat after i.m. administration. The note with it: gentamicin at 150 MKD and 100 MKD from seventh day.
The mark [4] stands for this setting: Table 6, 20 strains, read-out: MBC90.
Setting [5] is: Table 6, 20 strains, read-out: MBC range.

Molecules are shown by their SMILES. Values after ≈ are worked out from the molar mass of the structure shown. Where two headings read alike, the source gives them in different places.

Take `NC[C@H]1O[C@H](O[C@H]2[C@H](O)[C@@H](O[C@H]3O[C@H](CO)[C@@H](O)[C@H](N)[C@H]3O)[C@H](N)C[C@@H]2N)[C@H](O)[C@@H](O)[C@@H]1O` [Kanamicin, Kanamycin]: the MBC is 8 µg/mL (≈ 16.5 µM) in the data set on Escherichia coli (read-out: MBC90); 0.5 to 128 µg/mL (≈ 1.03 to 264 µM) with Escherichia coli (read-out: MBC range); 4 µg/mL (≈ 8.26 µM) in the data set on Klebsiella pneumoniae (read-out: MBC90); 0.25 to 4 µg/mL (≈ 0.516 to 8.26 µM) with Klebsiella pneumoniae (read-out: MBC range); 128 µg/mL (≈ 264 µM) with Pseudomonas sp. (read-out: MBC90); 2 to 256 µg/mL (≈ 4.13 to 528 µM) in the data set with Pseudomonas sp. (read-out: MBC range). In addition, the MBC is 64 µg/mL (≈ 132 µM) in the data set on S. aureus, 2 µg/mL (≈ 4.13 µM) in the data set on Shigella (read-out: MBC90) and 0.5 to 4 µg/mL (≈ 1.03 to 8.26 µM) in the data set with Shigella (read-out: MBC range). Besides, the MBC range with S. aureus (Table 6, S. aureus, 31 strains) is recorded as 0.125-128.
Consider `CNC[C@@H]1CC[C@@H](N)[C@@H](O[C@H]2[C@H](O)[C@@H](O[C@H]3OC[C@](C)(O)[C@H](NC)[C@H]3O)[C@H](N)C[C@@H]2N)O1` [MCR, Micronomicin], for which, in data set [1] (129600 min), the “dosage of general safety” value is 25 MKD. For the same compound, the “dosage showing apparent intoxication” value in data set [1] is 63 MKD.
In the case of `NCC[C@H](O)C(=O)N[C@@H]1C[C@H](N)[C@@H](O[C@H]2O[C@H](CN)[C@@H](O)[C@H](O)[C@H]2O)[C@H](O)[C@H]1O[C@H]1O[C@H](CO)[C@@H](O)[C@H](N)[C@H]1O` [Amikacin], the MBC with Escherichia coli (setting [4]) was 2 µg/mL (≈ 3.42 µM); in the data set on Escherichia coli (setting [5]), 0.25 to 8 µg/mL (≈ 0.427 to 13.7 µM); in the data set on Klebsiella pneumoniae (setting [4]), 1 µg/mL (≈ 1.71 µM); in the data set on Klebsiella pneumoniae (setting [5]), 0.125 to 2 µg/mL (≈ 0.213 to 3.42 µM); with Pseudomonas sp. (read-out: MBC90), 64 µg/mL (≈ 109 µM); in the data set with Pseudomonas sp. (read-out: MBC range), 1 to 64 µg/mL (≈ 1.71 to 109 µM). Moreover, the MBC in the data set on S. aureus (Table 6, S. aureus, 31 strains) is 32 µg/mL (≈ 54.6 µM); with Shigella (read-out: MBC90), 0.5 µg/mL (≈ 0.854 µM); in the data set on Shigella (read-out: MBC range), 0.25 to 1 µg/mL (≈ 0.427 to 1.71 µM). The MBC range in the data set on S. aureus (Table 6, S. aureus, 31 strains) is 0.125-128. Also, the ABR threshold entry in data set [2] is “increases of ABR threshold were observed”. Also, in data set [2], the auditory function entry was “nearly all the auditory function of the animals were lost”. The dead animals entry in data set [3] is on record as “no dead”.
